Here are results for 38 molecules from US20060166989A1, “2-naphthamide derivatives” (Bayer Healthcare AG, priority 2002, published 2006).

pIC50: −log10 of the molar value.

T1 sequence (P43119 whole entry): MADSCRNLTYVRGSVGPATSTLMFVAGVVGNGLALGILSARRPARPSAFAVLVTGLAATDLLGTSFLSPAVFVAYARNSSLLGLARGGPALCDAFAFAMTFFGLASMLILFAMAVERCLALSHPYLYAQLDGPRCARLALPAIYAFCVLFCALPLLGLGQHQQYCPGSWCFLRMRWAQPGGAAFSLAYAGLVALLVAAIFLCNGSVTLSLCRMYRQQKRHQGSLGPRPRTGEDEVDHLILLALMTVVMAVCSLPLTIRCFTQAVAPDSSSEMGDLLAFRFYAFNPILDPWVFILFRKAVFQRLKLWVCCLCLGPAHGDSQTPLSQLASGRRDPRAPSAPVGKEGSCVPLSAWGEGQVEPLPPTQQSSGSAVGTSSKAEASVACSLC

System in one series: not given
Assay: not given
Settings: not given
The term melting point denotes the temperature of the solid-liquid transition. `Cc1c(COc2ccc3cc(C(=O)NC(Cc4ccccc4)C(=O)O)ccc3c2)cccc1[N+](=O)[O-]` (stereo not shown) [Example 1-39] came in with a melting point of 202 °C.
The same measure, in the same setting: the value for `O=C(NC(Cc1ccccc1)C(=O)O)c1ccc2cc(OCc3ccc(Br)cc3)ccc2c1` (stereo not shown) [Example 1-53] was 232 °C; that for `O=C(NC(Cc1ccc(Br)cc1)C(=O)O)c1ccc2cc(OCc3ccccc3)ccc2c1` (stereo not shown) [Example 1-45] was 219 to 220 °C; that for `O=C(NC(Cc1ccccc1)C(=O)O)c1ccc2cc(OCc3ccccc3F)ccc2c1` (stereo not shown) [Example 1-7] was 180 to 182 °C.
The same measure, in the same setting: the value for `CC(Cc1ccccc1)(NC(=O)c1ccc2cc(OCc3ccccc3)ccc2c1)C(=O)O` (stereo not shown) [Example 1-84] was 184 °C; that for `O=C(NC(Cc1ccccc1)C(=O)O)c1ccc2cc(OCc3cccc4ccccc34)ccc2c1` (stereo not shown) [Example 1-70] was 220 °C.
Consider `O=C(NC(Cc1c[nH]c2ccc(F)cc12)C(=O)O)c1ccc2cc(OCc3ccccc3)ccc2c1` (stereo not shown) [Example 1-79], for which the melting point is 236 to 238 °C (dec.).
Still for that read-out and setting: the value for `O=C(NC(Cc1ccccc1F)C(=O)O)c1ccc2cc(OCc3ccccc3)ccc2c1` (stereo not shown) [Example 1-50] was 211 to 213 °C; that for `O=C(NC(Cc1ccccc1)C(=O)O)c1ccc2cc(OCCN3CCCC3)ccc2c1` (stereo not shown) [Example 1-81] was 234 °C; that for `CC(COc1ccc2cc(C(=O)NC(Cc3ccccc3)C(=O)O)ccc2c1)c1ccccc1` (stereo not shown) [Example 1-94] was 160 °C.
Still for that read-out and setting: the result for `Cc1ccc(COc2ccc3cc(C(=O)NC(Cc4ccccc4)C(=O)O)ccc3c2)cc1C` (stereo not shown) [Example 1-58] reads 189 °C; that for `O=C(NC(Cc1ccccc1)C(=O)O)c1ccc2cc(OCC3CCCCC3)ccc2c1` (stereo not shown) [Example 1-74], 220 °C.
Still for that read-out and setting: the value for `O=C(NC(Cc1ccccc1)C(=O)O)c1ccc2cc(OCc3ccc(Cl)c(Cl)c3)ccc2c1` (stereo not shown) [Example 1-32] was 202 °C.
As for `COc1cc(COc2ccc3cc(C(=O)NC(Cc4ccccc4)C(=O)O)ccc3c2)cc(OC)c1` (stereo not shown) [Example 1-35], the melting point was 140 °C.
On the same count and under the same terms, the result for `O=C(NC(Cc1ccccc1)C(=O)O)c1ccc2cc(OCc3cccnc3)ccc2c1` (stereo not shown) [Example 1-8] reads 217 °C.
The same measure, in the same setting: the value for `O=C(NC(Cc1ccccc1)C(=O)O)c1ccc2cc(OCCc3ccncc3)ccc2c1` (stereo not shown) [Example 1-83] was 190 °C.
`CCCCOc1ccc2cc(C(=O)NC(Cc3ccccc3)C(=O)O)ccc2c1` (stereo not shown) [Example 1-65]: the melting point was found to be 209 °C.
`O=C(NC(Cc1ccccc1)C(=O)O)c1ccc2cc(OCc3c(Cl)cccc3Cl)ccc2c1` (stereo not shown) [Example 1-41] yielded a melting point of 245 °C.
On the same count and under the same terms, the value for `O=C(NC(Cc1ccc2ccccc2c1)C(=O)O)c1ccc2cc(OCc3ccccc3)ccc2c1` (stereo not shown) [Example 1-67] was 226 to 227 °C; that for `O=C(NC(Cc1ccccc1)C(=O)O)c1ccc2cc(OCCc3ccccc3)ccc2c1` (stereo not shown) [Example 1-19] was 144 °C; that for `O=C(N[C@@H](Cc1ccccc1)C(=O)O)c1ccc2cc(OCc3ccccc3)ccc2c1` (single isomer, unassigned) [Example 1-1, N-(6-Benzyloxy-2-naphthoyl)phenylalanine] was 230 °C.
On the same count and under the same terms, the result for `O=C(NC(Cc1ccccc1)C(=O)O)c1ccc2cc(OCc3cccc(C(F)(F)F)c3)ccc2c1` (stereo not shown) [Example 1-27] reads 158 °C.
As to `Cc1cc(C)cc(COc2ccc3cc(C(=O)NC(Cc4ccccc4)C(=O)O)ccc3c2)c1` (stereo not shown) [Example 1-57], the melting point fell in the range of 167 to 168 °C.
The same measure, in the same setting: the result for `COc1cccc(COc2ccc3cc(C(=O)NC(Cc4ccccc4)C(=O)O)ccc3c2)c1` (stereo not shown) [Example 1-30] reads 163 °C; that for `O=C(NC(Cc1ccccn1)C(=O)O)c1ccc2cc(OCc3ccccc3)ccc2c1` (stereo not shown) [Example 1-43], 172 to 173 °C (dec.).
Same read-out and setting: the value for `COc1cccc(COc2ccc3cc(C(=O)NC(Cc4ccccc4)C(=O)O)ccc3c2)c1OC` (stereo not shown) [Example 1-38] was 161 °C.
On to `O=C(NC(Cc1ccccc1)C(=O)O)c1ccc2cc(OCc3cccc([N+](=O)[O-])c3)ccc2c1` (stereo not shown) [Example 1-61], for which the melting point lay within 193 to 194 °C.
On the same count and under the same terms, the result for `O=C(NC(Cc1ccc(N2CCOCC2)cc1)C(=O)O)c1ccc2cc(OCc3ccccc3)ccc2c1` (stereo not shown) [Example 1-76] reads 216 to 218 °C (dec.); that for `O=C(NC(Cc1ccccc1)C(=O)O)c1ccc2cc(OCc3cccc(OCC4CCCCC4)c3)ccc2c1` (stereo not shown) [Example 1-88], 180 °C; that for `O=C(NC(Cc1ccccc1)C(=O)O)c1ccc2cc(OCc3ccc(F)cc3F)ccc2c1` (stereo not shown) [Example 1-59], 199 °C.
`O=C(NC(Cc1ccccc1)C(=O)O)c1ccc2cc(OCCc3cccnc3)ccc2c1` (stereo not shown) [Example 1-77] showed a melting point of 113 °C.
`O=C(NC(Cc1ccccc1)C(=O)O)c1ccc2cc(OCCn3cccc3)ccc2c1` (stereo not shown) [Example 1-11] showed a melting point of 168 to 169 °C.
`O=C(NC(Cc1ccccc1)C(=O)O)c1ccc2cc(OCc3ccncc3)ccc2c1` (stereo not shown) [Example 1-12] came in with a melting point of 220 to 221 °C.
Still for that read-out and setting: the value for `O=C(NC(Cc1ccc([N+](=O)[O-])cc1)C(=O)O)c1ccc2cc(OCc3ccccc3)ccc2c1` (stereo not shown) [Example 1-46] was 227 to 228 °C.
Molecule `O=C(NC(Cc1ccccc1)C(=O)O)c1ccc2cc(OCc3ccc(C(F)(F)F)cc3)ccc2c1` (stereo not shown) [Example 1-28] registered a melting point of 224 °C.
With `O=C(NC(Cc1ccncc1)C(=O)O)c1ccc2cc(OCc3ccccc3)ccc2c1` (stereo not shown) [Example 1-69], the melting point was 260 to 262 °C (dec.).
Still for that read-out and setting: the value for `CCCOc1cccc(COc2ccc3cc(C(=O)NC(Cc4ccccc4)C(=O)O)ccc3c2)c1` (stereo not shown) [Example 1-92] was 173 °C.
The same measure, in the same setting: the value for `O=C(NC(Cc1ccccc1)C(=O)O)c1ccc2cc(OCc3ccccc3Br)ccc2c1` (stereo not shown) [Example 1-51] was 206 to 207 °C.

The next series addresses T1, IP receptor (Homo sapiens, UniProt P43119).
T1 construct: HEL cells were collected with centrifugation and washed with cAMP assay buffer; host or cells: HEL 92.1.7 human erythroleukemia cells
Put plainly: Iloprost-induced cAMP production assay in HEL cells (Assay 2). The class given is cell-based. The settings on record: read-out: Activity grade assay 2. The protocol: [Iloprost-Induced cAMP Production Assay in HEL Cells] (Assay 2)
HEL cells were collected with centrifugation and washed with cAMP assay buffer (CAB: Hank's balanced salt solution, 17 mM Hepes, 0.1% bovine serum albumin, 1 mM IBMX, 0.4% DMSO, and 1 mM L-ascorbic acid sodium salt (pH 7.4)). Cells were suspended at the density of 2.5×10^5 cells/ml in CAB, and twenty thousand cells in 80 μl aliquot of cell suspension were put in a well of 96 well plate (Falcon). Then, 10 μl of compound solution diluted with 1% DMSO in CAB or buffer alone was added. The plate was incubated at 37° C. for 30 min. Then, another 10 μl containing 100 nM iloprost in CAB or buffer alone was added and further incubated at 37° C. for 30 min. cAMP content in the well was measured by a cAMP ELISA kit (Applied Biosystems, USA).
Results of Iloprost-induced cAMP production assay (Assay2) are shown in Examples and tables of the Examples below. For practical reasons, the compounds are grouped in three classes of activity as follows: A(=or<)0.1μM<B(=or<)1μM<C
Background: Cyclic AMP is a second messenger, typically raised through Gs and lowered through Gi signalling.
For the molecule `Cc1c(COc2ccc3cc(C(=O)NC(Cc4ccccc4)C(=O)O)ccc3c2)cccc1[N+](=O)[O-]` (stereo not shown) [Example 1-39], the pIC50 was 6.00 to 7.00.
As to `O=C(NC(Cc1ccccc1)C(=O)O)c1ccc2cc(OCc3ccc(Br)cc3)ccc2c1` (stereo not shown) [Example 1-53], the pIC50 was less than 6.00.
Same read-out and setting: the value for `O=C(NC(Cc1ccc(Br)cc1)C(=O)O)c1ccc2cc(OCc3ccccc3)ccc2c1` (stereo not shown) [Example 1-45] was more than 7.00.
For the molecule `O=C(NC(Cc1ccccc1)C(=O)O)c1ccc2cc(OCc3ccccc3F)ccc2c1` (stereo not shown) [Example 1-7], the pIC50 was more than 7.00.
Same read-out and setting: the result for `CC(Cc1ccccc1)(NC(=O)c1ccc2cc(OCc3ccccc3)ccc2c1)C(=O)O` (stereo not shown) [Example 1-84] reads 6.00 to 7.00; that for `O=C(NC(Cc1ccccc1)C(=O)O)c1ccc2cc(OCc3cccc4ccccc34)ccc2c1` (stereo not shown) [Example 1-70], 6.00 to 7.00.
On the same count and under the same terms, the result for `O=C(NC(Cc1c[nH]c2ccc(F)cc12)C(=O)O)c1ccc2cc(OCc3ccccc3)ccc2c1` (stereo not shown) [Example 1-79] reads more than 7.00.
Same read-out and setting: the result for `O=C(NC(Cc1ccccc1F)C(=O)O)c1ccc2cc(OCc3ccccc3)ccc2c1` (stereo not shown) [Example 1-50] reads more than 7.00; that for `O=C(NC(Cc1ccccc1)C(=O)O)c1ccc2cc(OCCN3CCCC3)ccc2c1` (stereo not shown) [Example 1-81], less than 6.00.
On to `CC(COc1ccc2cc(C(=O)NC(Cc3ccccc3)C(=O)O)ccc2c1)c1ccccc1` (stereo not shown) [Example 1-94], for which the pIC50 is more than 7.00.
Regarding `Cc1ccc(COc2ccc3cc(C(=O)NC(Cc4ccccc4)C(=O)O)ccc3c2)cc1C` (stereo not shown) [Example 1-58], the pIC50 was 6.00 to 7.00.
`O=C(NC(Cc1ccccc1)C(=O)O)c1ccc2cc(OCC3CCCCC3)ccc2c1` (stereo not shown) [Example 1-74]: the pIC50 was 6.00 to 7.00.
Same read-out and setting: the value for `O=C(NC(Cc1ccccc1)C(=O)O)c1ccc2cc(OCc3ccc(Cl)c(Cl)c3)ccc2c1` (stereo not shown) [Example 1-32] was 6.00 to 7.00.
The same measure, in the same setting: the value for `COc1cc(COc2ccc3cc(C(=O)NC(Cc4ccccc4)C(=O)O)ccc3c2)cc(OC)c1` (stereo not shown) [Example 1-35] was more than 7.00; that for `O=C(NC(Cc1ccccc1)C(=O)O)c1ccc2cc(OCc3cccnc3)ccc2c1` (stereo not shown) [Example 1-8] was more than 7.00.
On the same count and under the same terms, the value for `O=C(NC(Cc1ccccc1)C(=O)O)c1ccc2cc(OCCc3ccncc3)ccc2c1` (stereo not shown) [Example 1-83] was more than 7.00.
Turning to `CCCCOc1ccc2cc(C(=O)NC(Cc3ccccc3)C(=O)O)ccc2c1` (stereo not shown) [Example 1-65], the pIC50 was 6.00 to 7.00.
As to `O=C(NC(Cc1ccccc1)C(=O)O)c1ccc2cc(OCc3c(Cl)cccc3Cl)ccc2c1` (stereo not shown) [Example 1-41], the pIC50 is 6.00 to 7.00.
Still for that read-out and setting: the value for `O=C(NC(Cc1ccc2ccccc2c1)C(=O)O)c1ccc2cc(OCc3ccccc3)ccc2c1` (stereo not shown) [Example 1-67] was more than 7.00; that for `O=C(NC(Cc1ccccc1)C(=O)O)c1ccc2cc(OCCc3ccccc3)ccc2c1` (stereo not shown) [Example 1-19] was more than 7.00; that for `O=C(N[C@@H](Cc1ccccc1)C(=O)O)c1ccc2cc(OCc3ccccc3)ccc2c1` (single isomer, unassigned) [Example 1-1, N-(6-Benzyloxy-2-naphthoyl)phenylalanine] was more than 7.00.
Same read-out and setting: the value for `O=C(NC(Cc1ccccc1)C(=O)O)c1ccc2cc(OCc3cccc(C(F)(F)F)c3)ccc2c1` (stereo not shown) [Example 1-27] was less than 6.00; that for `Cc1cc(C)cc(COc2ccc3cc(C(=O)NC(Cc4ccccc4)C(=O)O)ccc3c2)c1` (stereo not shown) [Example 1-57] was 6.00 to 7.00.
In the case of `COc1cccc(COc2ccc3cc(C(=O)NC(Cc4ccccc4)C(=O)O)ccc3c2)c1` (stereo not shown) [Example 1-30], the pIC50 was more than 7.00.
Same read-out and setting: the result for `O=C(NC(Cc1ccccn1)C(=O)O)c1ccc2cc(OCc3ccccc3)ccc2c1` (stereo not shown) [Example 1-43] reads 6.00 to 7.00; that for `COc1cccc(COc2ccc3cc(C(=O)NC(Cc4ccccc4)C(=O)O)ccc3c2)c1OC` (stereo not shown) [Example 1-38], less than 6.00; that for `O=C(NC(Cc1ccccc1)C(=O)O)c1ccc2cc(OCc3cccc([N+](=O)[O-])c3)ccc2c1` (stereo not shown) [Example 1-61], more than 7.00.
As for `O=C(NC(Cc1ccc(N2CCOCC2)cc1)C(=O)O)c1ccc2cc(OCc3ccccc3)ccc2c1` (stereo not shown) [Example 1-76], the pIC50 is less than 6.00.
The same measure, in the same setting: the value for `O=C(NC(Cc1ccccc1)C(=O)O)c1ccc2cc(OCc3cccc(OCC4CCCCC4)c3)ccc2c1` (stereo not shown) [Example 1-88] was less than 6.00.
For `O=C(NC(Cc1ccccc1)C(=O)O)c1ccc2cc(OCc3ccc(F)cc3F)ccc2c1` (stereo not shown) [Example 1-59], the pIC50 was 6.00 to 7.00.
For `O=C(NC(Cc1ccccc1)C(=O)O)c1ccc2cc(OCCc3cccnc3)ccc2c1` (stereo not shown) [Example 1-77], the pIC50 was 6.00 to 7.00.
The same measure, in the same setting: the value for `O=C(NC(Cc1ccccc1)C(=O)O)c1ccc2cc(OCCn3cccc3)ccc2c1` (stereo not shown) [Example 1-11] was more than 7.00.
The same measure, in the same setting: the result for `O=C(NC(Cc1ccccc1)C(=O)O)c1ccc2cc(OCc3ccncc3)ccc2c1` (stereo not shown) [Example 1-12] reads more than 7.00; that for `O=C(NC(Cc1ccc([N+](=O)[O-])cc1)C(=O)O)c1ccc2cc(OCc3ccccc3)ccc2c1` (stereo not shown) [Example 1-46], more than 7.00.
Same read-out and setting: the result for `O=C(NC(Cc1ccccc1)C(=O)O)c1ccc2cc(OCc3ccc(C(F)(F)F)cc3)ccc2c1` (stereo not shown) [Example 1-28] reads less than 6.00; that for `O=C(NC(Cc1ccncc1)C(=O)O)c1ccc2cc(OCc3ccccc3)ccc2c1` (stereo not shown) [Example 1-69], 6.00 to 7.00; that for `CCCOc1cccc(COc2ccc3cc(C(=O)NC(Cc4ccccc4)C(=O)O)ccc3c2)c1` (stereo not shown) [Example 1-92], 6.00 to 7.00.
Consider `O=C(NC(Cc1ccccc1)C(=O)O)c1ccc2cc(OCc3ccccc3Br)ccc2c1` (stereo not shown) [Example 1-51], for which the pIC50 was more than 7.00.
